Tests used:
[1] = system: S. epidermidis; experiment: Killing of bacteria in lysostaphin-coated Angiocath catheters; type: cell-based; conditions: for CFU (n = 2): catheter coating 0.1 mg/ml; for log reduction from the control sample: coated catheters
Procedure: Coating of Catheters. The needles from the AngioCath catheters were removed and disposed. Using a 1 ml syringe, the catheters were coated with 200 μl of a 0.1 mg/ml solution of lysostaphin. The catheters were incubated for 1 hour, unless otherwise specified, at room temperature. The catheters were then washed with 50 ml of phosphate buffered saline using a peristaltic pump with a flow rate of 1.5 ml/minute. The catheters were then inoculated with 120 μl of a ˜5×10^4 CFU/ml solution of bacteria (diluted in TSB) and incubated for 2 hours at 37° C. The catheter effluent was then streaked onto a blood agar plate and incubated overnight at 37° C.

[2] = system: S. aureus biofilms; experiment: Biofilm assay: S. aureus biofilms in 96 well plates or plate inserts, safranin stain or SEM; type: cell-based; conditions: 50 μg/ml in PBS, three hours
[3] = system: SA5; experiment: Adherence of bacteria to catheters; type: cell-based, S. aureus
Procedure: Adherence of Bacteria to Catheters. Lysostaphin coated catheters were placed in 2 ml of a 0.1 mg/ml solution of lysostaphin for 2 hours with shaking at 37° C. to coat the outside of the catheter. They were then washed and placed in a 5×10^4 CFU/ml solution of SA5 and incubated for 3 hours at 37° C. 40 μl of the bacterial solution was streaked on to blood agar plates and incubated at 37° C. overnight. The catheters were incubated in 2 ml TSB overnight at 37° C. and examined for growth. Untreated catheters were washed with 50 ml PBS and then inoculated with 120 μl of a 5×10^6 CFU/ml solution of bacteria and incubated for 2 or 24 hours. The catheter effluent was then streaked onto blood agar plates and placed at 37° C. overnight. The catheters were washed with 50 ml PBS and the last ml of wash was collected, and 100 μl was streaked onto blood agar plates and incubated at 37° C. overnight. The catheters were then incubated in 1 ml TSB at 37° C. overnight and observed for growth.

[4] = system: S. aureus strain SA5; experiment: Killing of bacteria in lysostaphin-coated polystyrene wells; type: cell-based; conditions: for CFU (n = 2): Table 13, Polystyrene
Procedure: Six wells were incubated with 300 μl of either 10 mg/ml, 1 mg/ml or 100 μg/ml of lysostaphin diluted in PBS. All the samples were done in duplicates. The plate was allowed to incubate overnight at 4° C. The following morning the wells were washed with 1 ml of PBS ten times, using vacuum suction to clean out the wells. S. aureus strain SA5 was diluted in PBS to a percent transmittance of 40. A 1:10,000 dilution of this solution was made, and 300 μl was added to each well. The plates were put in a shaking incubator at 75 rpm for two hours at 37° C. After two hours, 40 μl from each well was taken out and plated onto a blood agar plate and put in the incubator overnight at 37° C. The colonies on the plates were counted the following morning.
Coating of polystyrene wells. Wells were coated with 300 μl of 10 mg/ml, 1 mg/ml or 0.1 mg/ml of lysostaphin diluted in PBS. The plate was incubated overnight at 4° C. Wells were washed with 1 ml of PBS ten times, and washes were removed by vacuum suction. 300 μl of a 5×10^4 CFU/ml solution of S. aureus was added to each well. The plate was shaken at 75 rpm for two hours at 37° C. 40 μl from each well was then removed and streaked onto a blood agar plate and incubated overnight at 37° C.

[5] = system: Methicillin Sensitive S. aureus; experiment: Treatment of established infection in jugular vein catheterized mice; type: in vivo
Procedure: (§1) Jugular vein catheterized mice (Charles River Labs) were used. The mice were challenged through the tail vein with S. aureus (10^3-10^4CFU, a much lower dose than the 5×10^6 CFU or greater typically necessary to establish an infection in mice not catheterized). Treatment began four days post challenge when infection was established. Lysostaphin was administered through the indwelling catheter in a volume of 200 μ PBS (in the case of methicillin resistant S. aureus, nafcillin was added to the treatment). After the final treatment of the day, 50 μl of a lock solution (50% sterile glucose solution) with lysostaphin (and nafcillin, when used), added at the same concentration as used for treatment, was put in the catheters. Control mice received equal treatments with PBS and lock solution alone.
(§2) On the day following the last treatment the liver, heart and a portion of the catheter in the heart were harvested. The catheter portions were sonicated to release bacteria.

[6] = system: Methicillin-Resistant S. aureus; experiment: as above; type: in vivo
Procedure: as §1, §2

[7] = system: SA5; experiment: Leaching of lysostaphin off coated surfaces; type: cell-based, S. aureus
Procedure: Leaching of Lysostaphin. To test whether lysostaphin was slowly being released from the catheter into the lumen solution, lysostaphin coated catheters were incubated with 100 μl PBS for 2 hours at 37° C. The PBS was then transferred into an Eppendorf tube and 10^5 CFU of SA5 was added to the effluent and incubated for 1 hour at 37° C. 40 μl from the samples were streaked onto blood agar plates and incubated overnight at 37° C. Alternatively, lysostaphin coated catheters were incubated with PBS overnight at 37° C. The following morning the PBS was washed out and the catheters were inoculated with ˜5×10^4 CFU/ml SA5 for 2 hours at 37° C. The effluent was then streaked onto blood agar plates and incubated at 37° C. overnight. To look for leaching off the polystyrene surface, the wells were coated with 10, 1 and 0.1 mg/ml lysostaphin for 60 minutes. The wells were then washed, and 300 μl of PBS was added to the wells for 2 hours and then removed 300 μl of a 5×10^4 CFU/ml solution of SA5 was added to the PBS wash and allowed to incubate for one hour at 37° C. 40 μl was then removed and streaked onto a blood agar plate and incubated overnight at 37° C.

[8] = Table 7, MRSA, 20 mg/kg t.i.d. 4 days

Substance: lysostaphin
- CFU (n = 2) ([1]; S. epi 380): 4 CFU
- CFU (n = 2) ([1]; S. epi 1175): 68 CFU
- CFU (n = 2) ([1]; S. epi 35984): 16 CFU
- log reduction from the control sample ([1]; S. epidermidis 1175): 1.1 log
- log reduction from the control sample ([1]; S. epidermidis ATCC 35984): 1.8 log
- log reduction from the control sample ([1]; S. epidermidis type 380): 2.2 log
- biofilm disruption (safranin stain) ([2]; S. aureus strain MBT 5040 (MRSA), room temperature): completely disrupted
- biofilm disruption of lysostaphin-resistant strains (safranin stain) ([2]; lysostaphin-resistant S. aureus): failure of lysostaphin to disrupt biofilms
- growth after overnight incubation of catheters in TSB ([3]; after 3 hours in bacterial solution): the catheters remained sterile
- clearing of bacterial solution by coated catheters ([3]; catheters coated inside and outside, 5×10^4 CFU/ml SA5, 3 hrs): cleared the solution
- CFU (n = 2) ([4]; coating concentration 0.1 mg/ml): 3 CFU
- CFU (n = 2) ([4]; coating concentration 1 mg/ml): 1 CFU
- CFU (n = 2) ([4]; coating concentration 10 mg/ml): 1 CFU
- log reduction in bacterial counts ([4]; bacteria added directly to the 0.1 mg/mL coated wells): 2.4 log
- reduction in bacterial counts ([4]; lysostaphin coated polystyrene wells vs control wells): 99.5%
- CFU's remaining in lysostaphin coated wells, on average ([4]; polystyrene wells, 610 CFU's in control wells): 3 CFU
- S. aureus biofilm on implanted catheters (SEM, FIG. 6) ([5]; jugular vein catheterized mice after treatment): cleared the S. aureus biofilm from these catheters
- dose required for clearance of an established catheter infection ([5]; methicillin sensitive S. aureus, t.i.d. for 4 days): 20 mg/kg
- S. aureus recovered, Heart [6, 8]: 0 CFU
- S. aureus recovered, Liver [6, 8]: 0 CFU
- S. aureus recovered, Heart ([6]; Table 7, MRSA, 40 mg/kg t.i.d. 4 days): 0 CFU
- clearance of the S. aureus infection ([6]; lower doses or different dosing regimens (40 mg/kg once then 5 mg/kg; 3 doses of 15 mg/kg then 5 mg/kg)): did not result in complete clearance
- minimum dose necessary to clear catheters in mice ([6]; three times a day for four days): 40 mg/kg
- CFU (n = 3) ([7]; Angiocath, coating 0.1 mg/ml, saline incubation 2 hr, bacteria added to PBS wash): 219 CFU
- CFU (n = 3) ([7]; Angiocath, coating 0.1 mg/ml, saline incubation 24 hr, bacteria added to catheter): 0 CFU
- CFU (n = 3) ([7]; Polystyrene, coating 0.1 mg/m, saline incubation 2 hr, killing in wash): 291 CFU
- CFU (n = 3) ([7]; Polystyrene, coating 1 mg/ml, saline incubation 2 hr, killing in wash): 33 CFU
- CFU (n = 3) ([7]; Polystyrene, coating 10 mg/ml, saline incubation 2 hr, killing in wash): 26 CFU
- reduction in bacterial counts by PBS wash from coated catheters ([7]; bacteria added to PBS wash): only minimal reduction in bacterial counts
- log reduction in bacterial counts due to leaching ([7]; polystyrene, 0.1 mg/ml coating, PBS wash): 0.33 log
- log reduction of SA5 titers by wash compared to control ([7]; polystyrene, 1 mg/ml coating, PBS wash): 1.3 log
- log reduction of SA5 titers by wash compared to control ([7]; polystyrene, 10 mg/ml coating, PBS wash): 1.4 log
- clearing of bacteria by coated catheters after overnight wash with PBS ([7]; vs 1500 CFU's from untreated catheters): complete clearing of bacteria
